In ChEMBL document CHEMBL4507291 (2021):

How the values were obtained:
[1] = target: Tyrosine-protein kinase Fer (Homo sapiens) (UniProt P16591)
[2] = target: Calcium/calmodulin-dependent protein kinase kinase 2 (Homo sapiens) (UniProt Q96RR4)
[3] = target: T1, Megakaryocyte-associated tyrosine-protein kinase (Homo sapiens) (UniProt P42679)
T1 sequence (whole entry): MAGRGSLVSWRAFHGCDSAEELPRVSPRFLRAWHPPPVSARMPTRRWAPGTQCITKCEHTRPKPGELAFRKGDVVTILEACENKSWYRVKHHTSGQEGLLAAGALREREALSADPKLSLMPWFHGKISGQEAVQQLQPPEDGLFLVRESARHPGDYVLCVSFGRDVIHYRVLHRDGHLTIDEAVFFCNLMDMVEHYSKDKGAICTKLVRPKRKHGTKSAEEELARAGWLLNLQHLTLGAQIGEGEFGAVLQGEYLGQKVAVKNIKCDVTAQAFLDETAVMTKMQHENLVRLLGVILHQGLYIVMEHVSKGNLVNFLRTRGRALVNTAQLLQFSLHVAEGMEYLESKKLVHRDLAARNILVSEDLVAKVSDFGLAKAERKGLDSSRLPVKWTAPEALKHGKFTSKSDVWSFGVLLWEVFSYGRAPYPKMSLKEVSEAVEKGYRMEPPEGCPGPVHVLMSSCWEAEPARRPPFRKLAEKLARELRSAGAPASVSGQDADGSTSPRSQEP

[4] = target: Serine/threonine-protein kinase OSR1 (Homo sapiens) (UniProt O95747)
[5] = target: Serine/threonine-protein kinase Chk2 (Homo sapiens) (UniProt O96017)
[6] = target: T2, Alpha-1D adrenergic receptor (Homo sapiens) (UniProt P25100); conditions: Compound concentration 10.0 uM
T2 sequence (whole entry): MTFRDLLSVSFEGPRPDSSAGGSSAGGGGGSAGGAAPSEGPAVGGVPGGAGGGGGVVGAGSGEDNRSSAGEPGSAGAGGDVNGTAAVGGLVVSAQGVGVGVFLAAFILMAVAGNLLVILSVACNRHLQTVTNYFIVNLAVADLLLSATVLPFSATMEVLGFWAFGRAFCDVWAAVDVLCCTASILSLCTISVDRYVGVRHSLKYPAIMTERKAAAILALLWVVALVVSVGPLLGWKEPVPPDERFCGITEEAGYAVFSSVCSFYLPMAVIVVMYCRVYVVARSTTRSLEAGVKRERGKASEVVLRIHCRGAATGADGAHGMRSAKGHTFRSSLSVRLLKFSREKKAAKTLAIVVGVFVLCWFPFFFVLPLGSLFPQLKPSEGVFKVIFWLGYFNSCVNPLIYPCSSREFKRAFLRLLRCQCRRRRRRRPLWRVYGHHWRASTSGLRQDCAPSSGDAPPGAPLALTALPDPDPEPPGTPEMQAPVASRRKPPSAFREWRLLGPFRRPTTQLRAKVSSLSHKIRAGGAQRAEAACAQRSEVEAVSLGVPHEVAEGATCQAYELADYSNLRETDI

[7] = test system: Tyrosine-protein kinase ABL1 (Homo sapiens), P00519 [T315I]
[8] = target: Mast/stem cell growth factor receptor Kit (Homo sapiens) (UniProt P10721)
Sequence of Mast/stem cell growth factor receptor Kit (Homo sapiens) (P10721 whole entry): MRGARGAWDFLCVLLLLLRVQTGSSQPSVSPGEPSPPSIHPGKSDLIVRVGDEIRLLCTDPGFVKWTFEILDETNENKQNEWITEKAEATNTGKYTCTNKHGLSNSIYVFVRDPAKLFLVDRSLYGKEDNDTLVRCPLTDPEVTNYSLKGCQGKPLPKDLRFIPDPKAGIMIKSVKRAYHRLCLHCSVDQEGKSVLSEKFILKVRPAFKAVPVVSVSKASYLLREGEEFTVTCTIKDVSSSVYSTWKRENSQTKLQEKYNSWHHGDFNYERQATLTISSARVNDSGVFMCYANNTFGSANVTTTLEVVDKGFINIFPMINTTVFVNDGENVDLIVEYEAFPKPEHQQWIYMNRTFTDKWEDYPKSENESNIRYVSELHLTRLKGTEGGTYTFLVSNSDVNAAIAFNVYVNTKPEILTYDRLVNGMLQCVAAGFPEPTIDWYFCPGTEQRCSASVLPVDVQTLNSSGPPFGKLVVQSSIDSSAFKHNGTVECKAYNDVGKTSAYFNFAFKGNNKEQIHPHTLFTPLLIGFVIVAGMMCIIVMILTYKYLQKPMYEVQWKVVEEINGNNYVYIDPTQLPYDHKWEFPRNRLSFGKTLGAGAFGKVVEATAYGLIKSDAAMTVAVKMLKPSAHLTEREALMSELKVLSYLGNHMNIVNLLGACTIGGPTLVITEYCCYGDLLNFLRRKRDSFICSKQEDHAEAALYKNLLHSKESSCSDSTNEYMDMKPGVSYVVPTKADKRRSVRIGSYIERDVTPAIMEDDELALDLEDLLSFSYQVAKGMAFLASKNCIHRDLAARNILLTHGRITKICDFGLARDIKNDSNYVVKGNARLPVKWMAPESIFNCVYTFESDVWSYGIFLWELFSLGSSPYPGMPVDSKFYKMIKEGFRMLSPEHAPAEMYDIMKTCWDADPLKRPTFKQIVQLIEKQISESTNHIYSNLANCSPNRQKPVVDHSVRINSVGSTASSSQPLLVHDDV

[9] = target: Mitogen-activated protein kinase 6 (Homo sapiens) (UniProt Q16659)
[10] = target: LIM domain kinase 1 (Homo sapiens) (UniProt P53667)
[11] = target: Insulin receptor-related protein (Homo sapiens) (UniProt P14616)
[12] = target: Mitogen-activated protein kinase kinase kinase 14 (Homo sapiens) (UniProt Q99558)
Sequence of Mitogen-activated protein kinase kinase kinase 14 (Homo sapiens) (Q99558 whole entry, looked up): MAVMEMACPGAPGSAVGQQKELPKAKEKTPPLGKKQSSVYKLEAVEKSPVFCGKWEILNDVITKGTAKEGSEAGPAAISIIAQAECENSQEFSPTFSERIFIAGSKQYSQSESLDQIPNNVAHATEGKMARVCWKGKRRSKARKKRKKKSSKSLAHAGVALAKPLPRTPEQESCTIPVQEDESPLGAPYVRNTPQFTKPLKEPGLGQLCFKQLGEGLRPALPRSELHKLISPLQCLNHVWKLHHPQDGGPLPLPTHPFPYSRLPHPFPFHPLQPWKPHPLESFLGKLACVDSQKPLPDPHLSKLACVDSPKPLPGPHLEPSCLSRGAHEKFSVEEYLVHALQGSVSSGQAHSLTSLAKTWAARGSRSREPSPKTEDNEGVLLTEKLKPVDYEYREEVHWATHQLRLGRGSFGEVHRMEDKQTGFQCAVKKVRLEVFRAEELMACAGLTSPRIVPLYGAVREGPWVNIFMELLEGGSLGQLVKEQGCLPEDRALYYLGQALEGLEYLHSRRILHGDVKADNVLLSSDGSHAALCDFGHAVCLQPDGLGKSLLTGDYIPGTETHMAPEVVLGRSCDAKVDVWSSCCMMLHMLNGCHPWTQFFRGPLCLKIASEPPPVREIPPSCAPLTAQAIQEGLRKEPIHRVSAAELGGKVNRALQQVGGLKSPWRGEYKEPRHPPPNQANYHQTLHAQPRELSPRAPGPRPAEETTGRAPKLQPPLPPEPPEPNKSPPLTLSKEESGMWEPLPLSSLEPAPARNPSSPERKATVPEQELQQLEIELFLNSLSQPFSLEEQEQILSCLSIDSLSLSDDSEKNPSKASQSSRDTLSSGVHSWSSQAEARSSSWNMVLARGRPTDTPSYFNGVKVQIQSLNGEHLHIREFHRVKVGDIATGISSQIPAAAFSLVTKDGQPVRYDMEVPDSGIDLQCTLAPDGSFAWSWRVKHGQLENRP

[13] = target: Death-associated protein kinase 3 (Homo sapiens) (UniProt O43293)
[14] = target: Dual specificity protein kinase CLK3 (Homo sapiens) (UniProt P49761)
Sequence of Dual specificity protein kinase CLK3 (Homo sapiens) (P49761 whole entry, looked up): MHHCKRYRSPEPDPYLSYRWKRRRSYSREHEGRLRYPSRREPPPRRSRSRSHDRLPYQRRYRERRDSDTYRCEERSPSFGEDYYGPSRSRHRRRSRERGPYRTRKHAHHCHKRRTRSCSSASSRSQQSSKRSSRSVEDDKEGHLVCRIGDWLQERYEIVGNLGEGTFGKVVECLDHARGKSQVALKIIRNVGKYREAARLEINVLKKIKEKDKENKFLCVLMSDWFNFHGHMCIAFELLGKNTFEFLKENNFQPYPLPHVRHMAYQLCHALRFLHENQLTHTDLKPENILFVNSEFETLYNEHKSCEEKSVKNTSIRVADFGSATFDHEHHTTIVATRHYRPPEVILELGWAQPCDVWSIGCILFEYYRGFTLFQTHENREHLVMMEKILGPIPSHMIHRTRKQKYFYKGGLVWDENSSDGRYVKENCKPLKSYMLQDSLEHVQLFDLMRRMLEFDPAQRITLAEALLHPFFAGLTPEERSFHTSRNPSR

[15] = test system: Proto-oncogene tyrosine-protein kinase receptor Ret (Homo sapiens), P07949 [V804L]
Sequence of Proto-oncogene tyrosine-protein kinase receptor Ret (Homo sapiens), P07949 [V804L] (P07949 whole entry V804L): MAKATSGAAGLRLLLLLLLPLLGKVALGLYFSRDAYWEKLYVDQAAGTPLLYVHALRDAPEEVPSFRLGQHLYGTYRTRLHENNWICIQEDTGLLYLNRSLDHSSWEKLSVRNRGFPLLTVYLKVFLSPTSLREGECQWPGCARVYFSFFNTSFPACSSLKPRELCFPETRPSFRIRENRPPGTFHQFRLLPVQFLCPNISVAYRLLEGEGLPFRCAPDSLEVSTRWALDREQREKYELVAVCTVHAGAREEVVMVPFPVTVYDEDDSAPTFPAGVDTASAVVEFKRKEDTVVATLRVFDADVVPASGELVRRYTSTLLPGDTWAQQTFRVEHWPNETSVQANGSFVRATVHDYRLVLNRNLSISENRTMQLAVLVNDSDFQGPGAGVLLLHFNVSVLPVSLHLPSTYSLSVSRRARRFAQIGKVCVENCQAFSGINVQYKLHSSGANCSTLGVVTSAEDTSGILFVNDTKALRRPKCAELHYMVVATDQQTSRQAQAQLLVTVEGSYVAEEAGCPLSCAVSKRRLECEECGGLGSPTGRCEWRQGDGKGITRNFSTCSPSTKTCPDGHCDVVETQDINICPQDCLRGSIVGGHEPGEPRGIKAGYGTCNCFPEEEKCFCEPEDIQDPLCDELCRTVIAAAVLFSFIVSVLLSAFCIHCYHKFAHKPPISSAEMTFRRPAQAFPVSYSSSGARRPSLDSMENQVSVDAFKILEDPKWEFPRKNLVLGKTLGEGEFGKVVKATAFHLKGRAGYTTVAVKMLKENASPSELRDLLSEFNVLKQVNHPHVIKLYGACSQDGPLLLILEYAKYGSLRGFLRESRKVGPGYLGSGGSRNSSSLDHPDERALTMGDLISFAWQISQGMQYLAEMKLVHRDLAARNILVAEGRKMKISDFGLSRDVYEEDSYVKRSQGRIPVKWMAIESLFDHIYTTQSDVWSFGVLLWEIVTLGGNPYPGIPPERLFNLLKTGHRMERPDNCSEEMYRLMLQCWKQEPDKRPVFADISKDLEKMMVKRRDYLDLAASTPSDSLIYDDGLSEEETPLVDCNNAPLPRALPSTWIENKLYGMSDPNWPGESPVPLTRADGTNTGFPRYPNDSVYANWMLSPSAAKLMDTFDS

[16] = target: Serine/threonine-protein kinase Nek4 (Homo sapiens) (UniProt P51957)
Sequence of Serine/threonine-protein kinase Nek4 (Homo sapiens) (P51957 whole entry, looked up): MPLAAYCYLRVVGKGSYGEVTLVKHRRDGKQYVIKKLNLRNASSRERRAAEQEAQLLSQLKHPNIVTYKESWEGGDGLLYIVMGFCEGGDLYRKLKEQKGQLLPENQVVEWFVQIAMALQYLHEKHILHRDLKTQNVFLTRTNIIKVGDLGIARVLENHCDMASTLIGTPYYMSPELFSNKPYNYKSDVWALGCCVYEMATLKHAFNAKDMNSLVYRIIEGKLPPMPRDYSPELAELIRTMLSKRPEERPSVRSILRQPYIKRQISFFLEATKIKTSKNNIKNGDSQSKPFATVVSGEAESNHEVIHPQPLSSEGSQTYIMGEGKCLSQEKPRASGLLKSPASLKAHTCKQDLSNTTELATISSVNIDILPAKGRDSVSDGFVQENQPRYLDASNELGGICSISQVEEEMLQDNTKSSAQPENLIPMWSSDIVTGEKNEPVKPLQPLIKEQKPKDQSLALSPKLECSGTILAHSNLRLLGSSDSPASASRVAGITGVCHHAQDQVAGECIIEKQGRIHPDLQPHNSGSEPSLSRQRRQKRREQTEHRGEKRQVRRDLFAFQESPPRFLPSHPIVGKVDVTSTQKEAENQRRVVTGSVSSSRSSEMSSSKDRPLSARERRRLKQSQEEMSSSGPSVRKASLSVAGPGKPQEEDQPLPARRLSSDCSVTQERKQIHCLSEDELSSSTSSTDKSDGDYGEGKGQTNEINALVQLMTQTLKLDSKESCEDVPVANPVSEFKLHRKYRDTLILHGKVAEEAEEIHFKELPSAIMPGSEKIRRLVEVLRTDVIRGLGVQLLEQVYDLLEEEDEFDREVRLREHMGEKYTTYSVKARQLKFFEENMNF

[17] = target: T3, Muscarinic acetylcholine receptor M5 (Homo sapiens) (UniProt P08912); conditions: Compound concentration 10.0 uM
T3 sequence (whole entry): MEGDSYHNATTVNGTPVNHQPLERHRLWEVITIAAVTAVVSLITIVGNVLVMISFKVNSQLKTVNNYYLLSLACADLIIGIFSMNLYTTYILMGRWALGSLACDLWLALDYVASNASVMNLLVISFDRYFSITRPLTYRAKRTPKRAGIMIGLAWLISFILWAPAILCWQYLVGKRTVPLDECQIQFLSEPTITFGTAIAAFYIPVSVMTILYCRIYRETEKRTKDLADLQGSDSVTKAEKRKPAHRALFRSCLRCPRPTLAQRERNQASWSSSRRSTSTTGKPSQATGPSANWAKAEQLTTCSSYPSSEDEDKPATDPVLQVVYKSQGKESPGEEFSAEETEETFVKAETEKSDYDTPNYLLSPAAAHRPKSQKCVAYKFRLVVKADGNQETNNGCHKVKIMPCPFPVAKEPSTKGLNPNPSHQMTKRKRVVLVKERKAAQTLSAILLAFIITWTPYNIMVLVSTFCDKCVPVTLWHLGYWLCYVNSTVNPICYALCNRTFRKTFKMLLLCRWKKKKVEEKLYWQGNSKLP

[18] = target: Citron Rho-interacting kinase (Homo sapiens) (UniProt O14578)
[19] = Compound concentration 1000.0 nM
[20] = Compound concentration 100.0 nM

Sequence of Calcium/calmodulin-dependent protein kinase kinase 2 (Homo sapiens) (Q96RR4 2-588 limits assumed): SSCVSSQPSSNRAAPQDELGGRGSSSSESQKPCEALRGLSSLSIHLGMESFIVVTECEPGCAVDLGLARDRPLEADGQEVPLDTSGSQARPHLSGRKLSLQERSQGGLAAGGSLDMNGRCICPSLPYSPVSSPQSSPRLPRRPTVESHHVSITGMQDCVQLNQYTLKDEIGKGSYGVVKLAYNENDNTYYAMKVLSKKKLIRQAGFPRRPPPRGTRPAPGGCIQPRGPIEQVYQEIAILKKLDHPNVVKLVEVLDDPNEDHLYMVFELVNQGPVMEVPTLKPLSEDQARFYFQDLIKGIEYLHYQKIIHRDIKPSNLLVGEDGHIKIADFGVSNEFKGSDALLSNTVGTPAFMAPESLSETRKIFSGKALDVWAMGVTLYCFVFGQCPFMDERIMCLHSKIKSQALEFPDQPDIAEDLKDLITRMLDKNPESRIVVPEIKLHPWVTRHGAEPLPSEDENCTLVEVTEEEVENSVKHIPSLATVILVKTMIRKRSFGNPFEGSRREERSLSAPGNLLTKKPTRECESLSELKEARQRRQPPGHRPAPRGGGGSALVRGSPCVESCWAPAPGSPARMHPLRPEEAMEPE

C[C@@H]1CN(c2cc(-c3nn(C)c4ccc(OC5(C)CC5)cc34)ncn2)C[C@H](C)O1 [MLi-2-NC]
inactive: residual activity [1, 19] 100% | residual activity [2, 19] 85% | residual activity [3, 19] 80% | residual activity [4, 19] 93% | residual activity [5, 19] 97% | inhibition [6] 10.2% | residual activity [7, 19] 74% | residual activity [8, 19] 100% | residual activity [9, 19] 97% | residual activity [10, 19] 95% | residual activity [11, 19] 91% | residual activity [12, 19] 100% | residual activity [13, 19] 89% | residual activity [14, 19] 98% | residual activity [15, 19] 72% | residual activity [16, 19] 60% | inhibition [17] 2.87% | residual activity [18, 19] 100%

C[C@@H]1CN(c2cc(-c3n[nH]c4ccc(OC5(C)CC5)cc34)ncn2)C[C@H](C)O1 [MLi-2]
inactive: residual activity [1, 20] 86% | residual activity [2, 20] 100% | residual activity [3, 20] 94% | residual activity [4, 20] 72% | residual activity [5, 20] 68% | inhibition [6] 3.26% | residual activity [7, 20] 86% | residual activity [8, 20] 82% | residual activity [9, 20] 91% | residual activity [10, 20] 86% | residual activity [11, 20] 57% | residual activity [12, 20] 64% | residual activity [13, 20] 96% | residual activity [14, 20] 94% | residual activity [15, 20] 98% | residual activity [16, 20] 84% | inhibition [17] 1% | residual activity [18, 20] 69%
